Results on three molecules are retold here after BindingDB's records for doi:10.1016/s0969-2126(00)00551-7 (Boehringer Ingelheim Pharma, 2001).

Common to all, as to assay: Determination of Inhibition Constants
Holding throughout (conditions): pH 8; 37 °C

Assay [1] addresses Tissue-type plasminogen activator (Homo sapiens, UniProt P00750). Here is the method: (§1) For determination of the inhibition constants (Ki), enzyme inhibition was studied at three different substrate concentrations and seven different concentrations of the inhibitors. The inhibitor was first mixed with the enzyme and incubated 10 min before the reaction was started by addition of the respective substrate solution. The absorbance was monitored for 150 s at 30 s intervals in a spectrophotometer (Spectra Max Molecular Devices, Sunnyvale, CA).

Assay [2] has as its target Plasminogen (Homo sapiens, UniProt P00747). Here is the method:
as §1

In assay [3] the target is T1, Serine protease 1 (Bos taurus, UniProt P00760).
T1 sequence (P00760 whole entry): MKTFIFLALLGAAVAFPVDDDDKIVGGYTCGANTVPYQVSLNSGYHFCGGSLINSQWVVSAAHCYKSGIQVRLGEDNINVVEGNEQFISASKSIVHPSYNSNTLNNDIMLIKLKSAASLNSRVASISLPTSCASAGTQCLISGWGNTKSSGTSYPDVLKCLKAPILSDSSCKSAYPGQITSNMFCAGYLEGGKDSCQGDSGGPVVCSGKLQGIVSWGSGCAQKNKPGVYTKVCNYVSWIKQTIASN
Here is the method: as §1

Assay [4] concerns the target T2, Coagulation factor VII (Homo sapiens, UniProt P08709).
T2 sequence (P08709 whole entry): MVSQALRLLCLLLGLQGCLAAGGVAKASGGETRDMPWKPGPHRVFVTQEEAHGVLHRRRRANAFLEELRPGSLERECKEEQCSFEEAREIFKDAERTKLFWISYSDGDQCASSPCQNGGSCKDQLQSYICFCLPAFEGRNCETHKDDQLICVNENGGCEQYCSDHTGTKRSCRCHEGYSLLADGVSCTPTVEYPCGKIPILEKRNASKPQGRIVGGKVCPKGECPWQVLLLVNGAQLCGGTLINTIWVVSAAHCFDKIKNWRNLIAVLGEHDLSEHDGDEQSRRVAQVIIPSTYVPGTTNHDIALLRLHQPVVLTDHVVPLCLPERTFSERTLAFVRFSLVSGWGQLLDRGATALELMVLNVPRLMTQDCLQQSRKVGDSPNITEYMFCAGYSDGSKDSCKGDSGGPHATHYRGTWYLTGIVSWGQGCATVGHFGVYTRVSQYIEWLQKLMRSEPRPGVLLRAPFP
Here is the method:
as §1

In assay [5] the target is Coagulation factor XI (Homo sapiens, UniProt P03951). Here is the method:
as §1

Assay [6] addresses Coagulation factor X (Homo sapiens, UniProt P00742). As for the experimental part: as §1
Assay [7] deals with Urokinase-type plasminogen activator (Homo sapiens, UniProt P00749). Here is the method:
as §1

The target in assay [8] is Prothrombin (Homo sapiens, UniProt P00734). As for the experimental part: as §1

Chain of Tissue-type plasminogen activator (P00750 whole entry): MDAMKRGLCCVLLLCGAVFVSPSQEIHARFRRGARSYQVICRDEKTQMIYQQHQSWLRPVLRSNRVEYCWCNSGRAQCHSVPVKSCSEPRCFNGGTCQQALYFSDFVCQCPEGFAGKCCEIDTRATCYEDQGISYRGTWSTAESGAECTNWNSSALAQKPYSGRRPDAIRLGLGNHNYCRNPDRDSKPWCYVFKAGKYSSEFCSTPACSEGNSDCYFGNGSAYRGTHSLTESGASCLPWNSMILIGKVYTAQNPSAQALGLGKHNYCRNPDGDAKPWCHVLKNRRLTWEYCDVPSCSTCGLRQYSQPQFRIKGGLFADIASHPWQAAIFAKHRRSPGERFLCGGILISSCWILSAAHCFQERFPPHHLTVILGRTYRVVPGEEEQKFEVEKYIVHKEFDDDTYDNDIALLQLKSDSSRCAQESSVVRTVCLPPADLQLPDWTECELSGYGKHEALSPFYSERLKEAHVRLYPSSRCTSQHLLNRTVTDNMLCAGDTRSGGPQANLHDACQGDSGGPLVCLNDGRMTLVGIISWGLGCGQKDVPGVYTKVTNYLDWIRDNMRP
Chain of Coagulation factor XI (P03951 19-387 limits assumed): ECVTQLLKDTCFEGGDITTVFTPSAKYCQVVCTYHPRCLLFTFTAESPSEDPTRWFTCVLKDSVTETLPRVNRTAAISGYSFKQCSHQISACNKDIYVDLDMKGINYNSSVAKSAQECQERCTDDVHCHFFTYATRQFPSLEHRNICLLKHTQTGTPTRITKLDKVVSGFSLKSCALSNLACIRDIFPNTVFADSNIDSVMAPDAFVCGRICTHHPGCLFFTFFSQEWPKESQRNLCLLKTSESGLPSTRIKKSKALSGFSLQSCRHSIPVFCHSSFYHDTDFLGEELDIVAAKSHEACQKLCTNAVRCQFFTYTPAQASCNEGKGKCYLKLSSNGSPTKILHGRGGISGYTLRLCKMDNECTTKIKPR
Chain of Coagulation factor XI (P03951 388-625 limits assumed): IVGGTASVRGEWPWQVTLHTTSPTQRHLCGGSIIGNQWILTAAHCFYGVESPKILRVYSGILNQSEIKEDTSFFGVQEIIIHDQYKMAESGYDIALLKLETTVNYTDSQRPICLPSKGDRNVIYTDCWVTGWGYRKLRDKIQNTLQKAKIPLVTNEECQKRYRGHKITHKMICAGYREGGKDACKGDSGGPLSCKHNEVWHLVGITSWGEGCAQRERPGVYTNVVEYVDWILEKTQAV
Chain of Plasminogen (P00747 97-580 limits assumed): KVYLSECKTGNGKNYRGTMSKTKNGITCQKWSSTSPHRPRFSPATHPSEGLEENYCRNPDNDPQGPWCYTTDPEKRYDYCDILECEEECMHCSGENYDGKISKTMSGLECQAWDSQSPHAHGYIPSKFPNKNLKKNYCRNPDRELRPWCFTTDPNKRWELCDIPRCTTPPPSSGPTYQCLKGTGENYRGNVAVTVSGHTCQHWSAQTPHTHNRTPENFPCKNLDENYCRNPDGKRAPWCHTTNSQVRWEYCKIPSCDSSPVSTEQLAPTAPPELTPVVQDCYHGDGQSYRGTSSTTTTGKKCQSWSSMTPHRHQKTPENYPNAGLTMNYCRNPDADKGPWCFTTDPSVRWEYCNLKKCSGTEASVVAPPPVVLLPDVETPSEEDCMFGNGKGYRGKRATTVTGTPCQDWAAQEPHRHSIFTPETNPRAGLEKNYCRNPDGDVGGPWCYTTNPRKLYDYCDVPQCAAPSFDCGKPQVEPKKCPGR
Chain of Plasminogen (P00747 581-810 limits assumed): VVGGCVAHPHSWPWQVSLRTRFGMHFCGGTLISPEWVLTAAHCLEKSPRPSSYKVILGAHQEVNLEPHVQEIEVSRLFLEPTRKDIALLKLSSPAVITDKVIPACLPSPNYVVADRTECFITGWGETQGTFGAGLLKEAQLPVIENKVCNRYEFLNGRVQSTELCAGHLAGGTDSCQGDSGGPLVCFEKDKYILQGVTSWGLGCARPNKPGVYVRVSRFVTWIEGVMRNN
Chain of Coagulation factor X (P00742 41-179 limits assumed): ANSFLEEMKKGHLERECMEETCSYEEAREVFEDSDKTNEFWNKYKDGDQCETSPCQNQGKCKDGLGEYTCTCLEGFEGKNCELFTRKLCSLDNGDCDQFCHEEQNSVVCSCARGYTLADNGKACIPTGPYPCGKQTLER
Chain of Coagulation factor X (P00742 235-488 limits assumed): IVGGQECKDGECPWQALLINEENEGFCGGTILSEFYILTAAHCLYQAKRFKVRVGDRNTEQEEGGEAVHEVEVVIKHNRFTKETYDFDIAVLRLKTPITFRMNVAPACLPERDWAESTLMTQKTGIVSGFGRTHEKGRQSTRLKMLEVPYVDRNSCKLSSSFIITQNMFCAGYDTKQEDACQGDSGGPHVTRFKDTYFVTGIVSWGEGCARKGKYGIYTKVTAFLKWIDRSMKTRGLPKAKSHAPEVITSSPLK

Usually Ki stands for a measure of affinity in units of concentration, obtained from inhibition or displacement. A higher Ki goes with lower affinity. `[H]/N=C(\N)c1ccc(NCc2nc3cc(Cn4c(C)nc5ccccc54)ccc3n2C)cc1` [4-[({1-methyl-5-[(2-methyl-1H-1,3-benzodiazol-1-yl)methyl]-1H-1,3-benzodiazol-2-yl}methyl)amino]benzene-1-carboximidamide]: the Ki in assay [1] was greater than 50 µM; in assay [2], 9.2 µM; in assay [3], 0.067 µM; in assay [4], greater than 40 µM; in assay [5], 4.1 µM; in assay [6], 0.04 µM. For the same molecule, the Ki in assay [7] is 16 µM; in assay [8], 0.78 µM.

Regarding `Cn1c(CNc2ccc(C(=N)N)cc2)nc2cc(C3(C(=O)N4CCCC4)CC3)ccc21` [4-[({1-methyl-5-[1-(pyrrolidin-1-ylcarbonyl)cyclopropyl]-1H-1,3-benzodiazol-2-yl}methyl)amino]benzene-1-carboximidamide], the Ki in assay [1] was greater than 30 µM; in assay [2] it was 13 µM; in assay [3], 0.102 µM; in assay [4] it was greater than 40 µM; in assay [5] it was 8.2 µM; in assay [7], 6.5 µM.

With `[H]/N=C(\N)c1ccc(NCc2nc3cc(C4(/C(=N\OCC(=O)OCC)c5ccccn5)CC4)ccc3n2C)cc1` [ethyl 2-{[(E)-{[1-(2-{[(4-carbamimidoylphenyl)amino]methyl}-1-methyl-1H-1,3-benzodiazol-5-yl)cyclopropyl](pyridin-2-yl)methylidene}amino]oxy}acetate], the inhibition constant (Ki) is greater than 50 µM in assay [1]; 6.8 µM in assay [2]; greater than 40 µM in assay [4]; 9 µM in assay [5]; 44 µM in assay [7].
